Measurements taken from patent US9850283B2, “Macrocyclic inhibitors of the PD-1/PD-L1 and CD80(B7-1)/PD-L1 protein/protein interactions” (BRISTOL-MYERS SQUIBB COMPANY, priority 2013, dated 2017).
Where two headings read alike, the source gives them in different places. Starred links: 1 amine or outer side, 2 acyl side, 3 side chain; linkers in the order of their positions; H or OH if unused. Positions of bridges follow the written chain, without caps; N, C: chain ends. Non-standard residues stand in square brackets, D forms with d. Residues, ends and D or L forms follow the SMILES beside them. X3 = O=C([C@@H]1C[C@@H](Cc2ccc(F)cc2)CN1[*:1])[*:2]; Phe(3,4,5-F3) = N[C@@H](Cc1cc(F)c(F)c(F)c1)C(=O)O; Pro(4R-NH2) = N[C@H]1CN[C@H](C(=O)O)C1; d(cisHyp) = O=C(O)[C@H]1C[C@@H](O)CN1; Hyp = O=C(O)[C@@H]1C[C@@H](O)CN1; NMeF = CN[C@@H](Cc1ccccc1)C(=O)O; dHyp = O=C(O)[C@H]1C[C@H](O)CN1; NMeNle = CCCC[C@H](NC)C(=O)O; dPip = O=C(O)[C@H]1CCCCN1; NMeA = CN[C@@H](C)C(=O)O; Dab = NCC[C@H](N)C(=O)O; Dap = NC[C@H](N)C(=O)O

Key:
[1] = molecular target: T1, LK35.2-hPD-L1 cells / PE-labeled PD-1-Ig (Homo sapiens, UniProt Q9NZQ7); assay: LK35.2-hPD-L1 cell binding high-content screening assay; type: cell-based
T1 construct: expressed in transfected cells; host or cells: LK35.2 mouse B cell line
Method in brief: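 Mouse LK35.2 B cells stably over-expressing human PD-L1, cultured overnight, treated with compound plus PE-labeled human PD-1-Ig (1 nM final) in RPMI/10% FCS for 1 h at 37 °C. After washing, bound fluorescence quantified by high-content imaging.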

Human PD-L1/PD-1 = molecular target: T2, Human PD-L1/PD-1 (Homo sapiens, UniProt Q9NZQ7); assay: HTRF PD-1-Ig/PD-L1-His binding assay (human PD-L1)
T2 construct: made in house; host or cells: HEK293T
Method in brief: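 The time-resolved fluorescence signal comes from Eu-cryptate anti-Ig (1 nM) and APC anti-His (20 nM) antibodies bound to a PD-1-Ig/PD-L1-His complex. Both partners lack transmembrane regions.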

CMV-specific T cells = CMV-specific T cells (Homo sapiens, UniProt Q9NZQ7); assay: CMV-specific T cell function assay (IFNγ secretion, ELISA); type: cell-based
Description: CMV-specific T Cell Function Assay. […] AIM-V medium (Life Technologies, Grand Island, N.Y.) supplemented with 10% heat-inactivated fetal bovine serum (FBS, Sigma, St Louis, Mo.) was used at a total volume of 200 µL/well in triplicate. The cells were cultured for 4 days at 37° C., 5% CO2 at which time culture supernatant was harvested for determination of secreted IFNγ by ELISA (OptEIA hIFNγ ELISA Kit, BD Biosciences, San Jose, Calif.).

[2] = cell binding assay, cell line not given, value given instead of cluster, read-out: CBA IC50 value
[3] = value given instead of cluster, read-out: HTRF IC50 value
[4] = value given instead of cluster, read-out: CMV Recall EC50 value

T2 sequence (Q9NZQ7 with tags, fused parts or gaps): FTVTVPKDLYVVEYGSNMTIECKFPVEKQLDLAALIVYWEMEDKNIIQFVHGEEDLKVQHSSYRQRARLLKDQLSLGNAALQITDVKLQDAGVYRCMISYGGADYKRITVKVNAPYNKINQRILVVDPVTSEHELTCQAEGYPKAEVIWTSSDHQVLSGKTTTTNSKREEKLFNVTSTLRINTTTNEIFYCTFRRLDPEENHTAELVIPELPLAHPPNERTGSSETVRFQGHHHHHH
Chain of CMV-specific T cells (Q9NZQ7 19-290): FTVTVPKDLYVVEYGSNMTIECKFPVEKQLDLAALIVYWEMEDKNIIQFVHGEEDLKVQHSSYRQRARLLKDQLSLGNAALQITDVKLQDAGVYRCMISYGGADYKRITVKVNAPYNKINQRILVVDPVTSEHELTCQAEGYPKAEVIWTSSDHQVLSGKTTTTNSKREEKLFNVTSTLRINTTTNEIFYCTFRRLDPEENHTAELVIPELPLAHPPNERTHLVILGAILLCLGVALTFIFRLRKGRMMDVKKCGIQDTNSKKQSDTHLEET
T1 sequence (Q9NZQ7 19-290): as above

## CCCC[C@H]1C(=O)N2CCC[C@@H]2C(=O)N2C[C@H](N)C[C@H]2C(=O)N[C@@H](C(C)C)C(=O)N(C)[C@@H](Cc2ccccc2)C(=O)N[C@@H](Cc2ccc(O)cc2)C(=O)N2CCCC[C@@H]2C(=O)N[C@@H](Cc2c[nH]c3ccccc23)C(=O)N[C@@H](Cc2ccc(O)cc2)C(=O)N[C@@H](CC(C)C)C(=O)N[C@H](C(=O)NCC(N)=O)CSCC(=O)N[C@@H](Cc2cc(F)c(F)c(F)c2)C(=O)N(C)[C@@H](Cc2ccccc2)C(=O)N1C [Example 3194] ({CH2CO}-[Phe(3,4,5-F3)][NMeF][NMeNle][dP][Pro(4R-NH2)]V[NMeF]Y[dPip]WYLCG-NH2; thioether N-13)
[1]; cell line of CBA not given (LK35.2-hPD-L1 or 293T-hPD-L1), read-out: CBA IC50 value
  IC50: 1.15 nM
Human PD-L1/PD-1; read-out: HTRF IC50 value
  IC50: 4.39 nM
CMV-specific T cells; read-out: CMV Recall EC50 value
  EC50: 25.2 nM

## CCCC[C@H]1C(=O)N2C[C@H](O)C[C@@H]2C(=O)N[C@@H](CC(=O)O)C(=O)N[C@@H](C(C)C)C(=O)N(C)[C@@H](Cc2ccccc2)C(=O)N[C@@H](Cc2ccc(O)cc2)C(=O)N2CCCC[C@@H]2C(=O)N[C@@H](Cc2c[nH]c3ccccc23)C(=O)N[C@@H](Cc2ccc(O)cc2)C(=O)N[C@@H](CC(C)C)C(=O)N[C@H](C(=O)NCC(N)=O)CSCC(=O)N[C@@H](Cc2cc(F)c(F)c(F)c2)C(=O)N(C)[C@@H](Cc2ccccc2)C(=O)N1C [Example 3590] ({CH2CO}-[Phe(3,4,5-F3)][NMeF][NMeNle][d(cisHyp)]DV[NMeF]Y[dPip]WYLCG-NH2; thioether N-13)
[1]; cell binding assay, cell line not given, cluster symbol, read-out: CBA IC50 cluster
  IC50: 0.158 to 4.71 nM
Human PD-L1/PD-1; cluster symbol, read-out: HTRF IC50 cluster
  IC50: 0.385 to 6.74 nM
CMV-specific T cells; read-out: CMV Recall EC50 cluster, cluster symbol
  EC50: 1000 nM

## CCCC[C@H]1C(=O)N2C[C@@H](O)C[C@@H]2C(=O)N[C@@H](CC(=O)O)C(=O)N[C@@H](C(C)C)C(=O)N(C)[C@@H](Cc2ccccc2)C(=O)N[C@@H](Cc2ccc(O)cc2)C(=O)N2CCCC[C@@H]2C(=O)N[C@@H](Cc2c[nH]c3ccccc23)C(=O)N[C@@H](Cc2ccc(O)cc2)C(=O)N[C@@H](CC(C)C)C(=O)N[C@H](C(=O)NCC(N)=O)CSCC(=O)N[C@@H](Cc2cc(F)c(F)c(F)c2)C(=O)N(C)[C@@H](Cc2ccccc2)C(=O)N1C [Example 3592] ({CH2CO}-[Phe(3,4,5-F3)][NMeF][NMeNle][dHyp]DV[NMeF]Y[dPip]WYLCG-NH2; thioether N-13)
[1]; [2]
  IC50: 0.158 nM
Human PD-L1/PD-1; [3]
  IC50: 4 nM
CMV-specific T cells; [4]
  EC50: 0.62 nM

## CCCC[C@H]1C(=O)N(C)[C@@H](CCCC)C(=O)N[C@@H](CCCNC(=N)N)C(=O)N[C@H](C(=O)NCC(N)=O)CSCC(=O)N[C@@H](Cc2ccc(O)cc2)C(=O)N(C)[C@@H](C)C(=O)N[C@@H](CCN)C(=O)N2CCC[C@H]2C(=O)N[C@@H](Cc2cnc[nH]2)C(=O)N[C@@H](CCC(=O)O)C(=O)N2C[C@H](O)C[C@H]2C(=O)N[C@@H](Cc2c[nH]c3ccccc23)C(=O)N[C@@H](CO)C(=O)N[C@@H](Cc2c[nH]c3ccccc23)C(=O)N1C [Example 5025] ({CH2CO}-Y[NMeA][Dab]PHE[Hyp]WSW[NMeNle][NMeNle]RCG-NH2; thioether N-14)
[1]; [2]
  IC50: 1.16 nM
Human PD-L1/PD-1; [3]
  IC50: 7.43 nM
CMV-specific T cells; [4]
  EC50: 2.3 nM

## CCCC[C@H]1C(=O)N(C)[C@@H](CCCC)C(=O)N[C@@H](CN)C(=O)N[C@H](C(=O)NCC(N)=O)CSCC(=O)N[C@@H](Cc2ccc(O)cc2)C(=O)N(C)[C@@H](C)C(=O)N[C@@H](CC(N)=O)C(=O)N2CCC[C@H]2C(=O)N[C@@H](Cc2cnc[nH]2)C(=O)N[C@@H](CCC(=O)O)C(=O)N2C[C@H](O)C[C@H]2C(=O)N[C@@H](Cc2c[nH]c3ccccc23)C(=O)N[C@@H](CO)C(=O)N[C@@H](Cc2c[nH]c3ccccc23)C(=O)N1C [Example 5062] ({CH2CO}-Y[NMeA]NPHE[Hyp]WSW[NMeNle][NMeNle][Dap]CG-NH2; thioether N-14)
[1]; [2]
  IC50: 2.28 nM
Human PD-L1/PD-1; [3]
  IC50: 5.15 nM
CMV-specific T cells; [4]
  EC50: 14.5 nM

## CCCC[C@H]1C(=O)N(C)[C@@H](CCCC)C(=O)N[C@@H](CCN)C(=O)N[C@H](C(=O)NCC(N)=O)CSCC(=O)N[C@@H](Cc2ccc(O)cc2)C(=O)N(C)[C@@H](C)C(=O)N[C@@H](CC(N)=O)C(=O)N2CCC[C@H]2C(=O)N[C@@H](Cc2c[nH]cn2)C(=O)N[C@@H](CCC(=O)O)C(=O)N2C[C@H](Cc3ccc(F)cc3)C[C@H]2C(=O)N[C@@H](Cc2c[nH]c3ccccc23)C(=O)N[C@@H](CCN)C(=O)N[C@@H](Cc2c[nH]c3ccccc23)C(=O)N1C [Example 13011] ({CH2CO}-Y[NMeA]NPHE[X3]W[Dab]W[NMeNle][NMeNle][Dab]CG-NH2; thioether N-14)
CMV-specific T cells; numeric value, read-out: CMV Recall EC50 values
  EC50: 38.3 nM
